Laboratory results from patent EP4667458A1 (Kanaph Therapeutics Inc., priority 2023, dated 2024).

Target: T1, SOS1 (Homo sapiens, UniProt Q07889)
T1 construct: adding equal amounts of HIS-SOS1cat (160 nM; Cytoskeleton, US); His; purchased Cytoskeleton, US
T1 sequence (Q07889 564-1049 limits assumed): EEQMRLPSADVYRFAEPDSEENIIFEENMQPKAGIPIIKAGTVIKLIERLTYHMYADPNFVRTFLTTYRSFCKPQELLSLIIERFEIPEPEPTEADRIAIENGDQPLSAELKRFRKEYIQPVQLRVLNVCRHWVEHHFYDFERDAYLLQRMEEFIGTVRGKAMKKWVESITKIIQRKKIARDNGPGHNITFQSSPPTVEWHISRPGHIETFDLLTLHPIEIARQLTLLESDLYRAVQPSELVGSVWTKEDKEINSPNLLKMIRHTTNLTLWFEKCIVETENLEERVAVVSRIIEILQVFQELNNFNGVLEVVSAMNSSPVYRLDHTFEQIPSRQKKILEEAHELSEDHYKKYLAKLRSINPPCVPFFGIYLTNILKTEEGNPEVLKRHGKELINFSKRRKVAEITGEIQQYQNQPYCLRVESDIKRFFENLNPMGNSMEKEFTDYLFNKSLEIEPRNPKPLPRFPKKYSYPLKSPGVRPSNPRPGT
Test: SOS-catalyzed nucleotide exchange assay (HTRF, SOS1-mediated GTP loading of KRAS G12D)
Type: biochemical
Conditions: GST-KRAS G12D, HIS-SOS1cat, EDA-GTP-DY-647P1; compound 128 pM to 10 µM; read-out: SOS-catalyzed nucleotide exchange assay (IC50 range, Grade)
Description: SOS1 activity was measured by SOS1-mediated GTP loading quantification of KRAS^G12D. GTP-loaded KRAS^G12D was detected by HTRF (Homogeneous Time Resolved Fluorescence) using anti-GST terbium (Cisbio, France) as a donor and a fluorescence GTP analogue (EDA-GTP-DY-647P1, [DY-647P1-labeled 2'/3'-O-(2-aminoethyl-carbamoyl)guanosine-5'-triphosphate (Jena bioscience, Germany)]) as an acceptor.
Assay buffer was composed of 10 mM HEPES pH 7.4, 150 mM NaCl, 5 mM MgCl2, 1 mM DTT, 0.05% BSA Fraction V pH 7.0 (Sigma) and 0.0025% (v/v) Igepal (Sigma). KRAS^G12D working solution was prepared by adding equal amounts of GST-KRAS^G12D (100 nM) and anti-GST-terbium (2 nM; Cisbio, France) to the assay buffer and incubating on ice for 10 minutes. SOS1cat working solution was prepared by adding equal amounts of HIS-SOS1cat (160 nM; Cytoskeleton, US) and EDA-GTP-DY-647P1 (200 nM; Jena bioscience, Germany) to the assay buffer. Control solution was prepared by adding equal volumes of EDA-GTP-DY-647P1 and the assay buffer for normalization control to exclude GEF-independent GTP loading and background signals. In order to induce a reaction, 5 µL of the SOS1cat working solution or the control solution was injected into each well. 5 µL of a compound having various concentrations from 128 pM to 10 µM was added to wells containing the SOS1cat working solution and incubated at room temperature for 10 minutes to bind to SOS1.
10 µL of the KRAS^G12D solution was added to each well and incubated for 30 minutes at room temperature while shaking. HTRF was measured using a Thermo Varioskan (excitation 334 nm, emission 665 nm). The IC50 of each inhibitor was analyzed using Graphad Prism.
The SOS1 inhibitory activity of the Example compounds measured by the above method was evaluated based on the following criteria, and the results are shown in Table 29.

Row | IC50 [µM] | Molecule
1 | 1 to 10 | C[C@@H](NC(=O)c1ccc(=O)n(C2CCOCC2)n1)c1cccc(Cl)c1 [Example 17, N-[(1R)-1-(3-chlorophenyl)ethyl]-6-oxo-1-tetrahydropyran-4-yl-pyridazine-3-carboxamide]
2 | < 1 | COc1ccc(-n2nc(C(=O)N[C@H](C)c3cc(N)cc(C(F)(F)F)c3)ccc2=O)cc1OC [Example 36, N-[(1R)-1-[3-amino-5-(trifluoromethyl)phenyl]ethyl]-1-(3,4-dimethoxyphenyl)-6-oxo-pyridazine-3-carboxamide]
3 | < 1 | C[C@@H](NC(=O)c1ccc(=O)n(C2=CCCCC2)n1)c1cc(N)cc(C(F)(F)F)c1 [Example 65, N-[(1R)-1-[3-amino-5-(trifluoromethyl)phenyl]ethyl]-1-(cyclohex-1-en-1-yl)-6-oxo-1,6-dihydropyridazine-3-carboxamide]
4 | 1 to 10 | C#Cc1cc(=O)n(-c2ccccc2)nc1C(=O)N[C@H](C)c1cc(N)cc(C(F)(F)F)c1 [Example 50, N-[(1R)-1-[3-amino-5-(trifluoromethyl)phenyl]ethyl]-4-ethynyl-6-oxo-1-phenyl-pyridazine-3-carboxamide]
5 | < 1 | C[C@@H](NC(=O)c1ccc(=O)n(-c2ccccc2Cl)n1)c1cc(N)cc(C(F)(F)F)c1 [Example 32, (R)-N-(1-(3-amino-5-(trifluoromethyl)phenyl)ethyl)-1-(2-chlorophenyl)-6-oxo-1,6-dihydropyridazine-3-carboxamide]
6 | < 1 | C[C@@H](NC(=O)c1ccc(=O)n(-c2ccccc2)n1)c1cccc(Oc2ccccc2)c1 [Example 13, 6-oxo-N-[(1R)-1-(3-phenoxyphenyl)ethyl]-1-phenyl-pyridazine-3-carboxamide]
7 | 1 to 10 | CC(=O)Nc1ccccc1-n1nc(C(=O)N[C@H](C)c2cc(N)cc(C(F)(F)F)c2)ccc1=O [Example 52, (R)-1-(2-acetamidophenyl)-N-(1-(3-amino-5-(trifluoromethyl)phenyl)ethyl)-6-oxo-1,6-dihydropyridazine-3-carboxamide]
8 | < 1 | C[C@@H](NC(=O)c1ccc(=O)n(-c2ccc(F)cc2F)c1)c1cc(N)cc(C(F)(F)F)c1 [Example 95, N-[(1R)-1-[3-amino-5-(trifluoromethyl)phenyl]ethyl]-1-(2,4-difluorophenyl)-6-oxo-1,6-dihydropyridine-3-carboxamide]
9 | 1 to 10 | 1-(1-acetylpiperidin-4-yl)-N-[(1R)-1-[3-amino-5-(trifluoromethyl)phenyl]ethyl]-6-oxo-1,6-dihydropyridazine-3-carboxamide [Example 118]
10 | 1 to 10 | C[C@@H](NC(=O)c1ccc(=O)n([C@@H]2CCCC[C@H]2O)n1)c1cc(N)cc(C(F)(F)F)c1 [Example 124, N-((R)-1-(3-amino-5-(trifluoromethyl)phenyl)ethyl)-1-((1R,2R)-2-hydroxycyclohexyl)-6-oxo-1,6-dihydropyridazine-3-carboxamide]
11 | < 1 | COc1ccccc1-n1nc(C(=O)N[C@H](C)c2cccc(C(F)(F)CO)c2)ccc1=O [Example 38, N-[(1R)-1-[3-(1,1-difluoro-2-hydroxyethyl)phenyl]ethyl]-1-(2-methoxyphenyl)-6-oxo-pyridazine-3-carboxamide]

More lines, now with the values behind:

Row | Molecule | IC50 [µM]
12 | C[C@@H](NC(=O)c1ccc(=O)n(-c2ccccc2)c1)c1cc(N)cc(C(F)(F)F)c1 [Example 62, N-[(1R)-1-[3-amino-5-(trifluoromethyl)phenyl]ethyl]-6-oxo-1-phenylpyridine-3-carboxamide] | < 1
13 | C[C@@H](NC(=O)c1ccc(=O)n(-c2cccc(C(=O)N(C)C)c2)n1)c1cccc(C(F)(F)CO)c1F [Example 43, N-[(1R)-1-[3-(1,1-difluoro-2-hydroxy-ethyl)-2-fluorophenyl]ethyl]-1-[3-(dimethylcarbamoyl)phenyl]-6-oxo-pyridazine-3-carboxamide] | < 1
14 | CC(=O)N1CCC(n2nc(C(=O)N[C@H](C)c3cccc(Cl)c3)ccc2=O)CC1 [Example 18, 1-(1-acetyl-4-piperidyl)-N-[(1R)-1-(3-chlorophenyl)ethyl]-6-oxo-pyridazine-3-carboxamide] | 1 to 10
15 | C[C@@H](NC(=O)c1ccc(=O)n(C2=CCN(S(C)(=O)=O)CC2)n1)c1cc(N)cc(C(F)(F)F)c1 [Example 67, N-[(1R)-1-[3-amino-5-(trifluoromethyl)phenyl]ethyl]-1-(1-methanesulfonyl-1,2,3,6-tetrahydropyridin-4-yl)-6-oxo-1,6-dihydropyridazine-3-carboxamide] | < 1
16 | C[C@@H](NC(=O)c1ccc(=O)n(-c2ccccc2)n1)c1cccc(Cl)c1 [Example 1, N-[(1R)-1-(3-chlorophenyl)ethyl]-6-oxo-1-phenyl-pyridazine-3-carboxamide] | 1 to 10
17 | (R)-1-([1,1'-biphenyl]-4-yl)-N-(1-(3-amino-5-(trifluoromethyl)phenyl)ethyl)-6-oxo-1,6-dihydropyridazine-3-carboxamide [Example 24] | 1 to 10
18 | Cc1cc(-n2nc(C(=O)N[C@H](C)c3cc(N)cc(C(F)(F)F)c3)ccc2=O)cs1 [Example 27, (R)-N-(1-(3-amino-5-(trifluoromethyl)phenyl)ethyl)-1-(5-methylthiophen-3-yl)-6-oxo-1,6-dihydropyridazine-3-carboxamide] | < 1
19 | C[C@@H](NC(=O)c1ccc(=O)n(C2CCCCC2)n1)c1cc(N)cc(C(F)(F)F)c1 [Example 116, N-[(1R)-1-[3-amino-5-(trifluoromethyl)phenyl]ethyl]-1-cyclohexyl-6-oxo-1,6-dihydropyridazine-3-carboxamide] | 1 to 10
20 | C[C@@H](NC(=O)c1ccc(=O)n(-c2ccccc2)n1)c1cccc(OC(F)(F)F)c1 [Example 10, 6-oxo-1-phenyl-N-[(1R)-1-[3-(trifluoromethoxy)phenyl]ethyl]pyridazine-3-carboxamide] | 1 to 10
21 | COC1CC=C(n2nc(C(=O)N[C@H](C)c3cc(N)cc(C(F)(F)F)c3)ccc2=O)CC1 (stereo partly drawn) [Example 127, N-[(1R)-1-[3-amino-5-(trifluoromethyl)phenyl]ethyl]-1-(4-methoxycyclohex-1-en-1-yl)-6-oxo-1,6-dihydropyridazine-3-carboxamide] | 1 to 10
22 | CNCc1ccc(Cl)cc1-c1cnc([C@@H](C)NC(=O)c2ccc(=O)n(-c3ccccc3F)c2)s1 [Example 138, N-[(1R)-1-[5-[5-chloro-2-(methylaminomethyl)phenyl]thiazol-2-yl]ethyl]-1-(2-fluorophenyl)-6-oxo-pyridine-3-carboxamide] | < 1
23 | CC(=O)Nc1cccc(-n2nc(C(=O)N[C@H](C)c3cccc(C(F)(F)CO)c3)ccc2=O)c1 [Example 53, 1-(3-acetamidophenyl)-N-[(1R)-1-[3-(1,1-difluoro-2-hydroxyethyl)phenyl]ethyl]-6-oxo-pyridazine-3-carboxamide] | 1 to 10
24 | C[C@@H](NC(=O)c1ccc(=O)n(-c2cccc(N3CCN(C)C3=O)c2)c1)c1cc(N)cc(C(F)(F)F)c1 [Example 89, N-[(1R)-1-[3-amino-5-(trifluoromethyl)phenyl]ethyl]-1-[3-(3-methyl-2-oxo-imidazolidin-1-yl)phenyl]-6-oxo-pyridine-3-carboxamide] | < 1
25 | CCOc1cccc([C@@H](C)NC(=O)c2ccc(=O)n(-c3ccccc3)n2)c1 [Example 60, (R)-N-(1-(3-ethoxyphenyl)ethyl)-6-oxo-1-phenyl-1,6-dihydropyridazine-3-carboxamide] | > 10
